In patent US20250114460A1, “NOVEL PLK1 DEGRADATION INDUCING COMPOUND” (UPPTHERA, INC., priority 2021, published 2025):

Columns and labels:
PLK1 = target: T1, PLK1 (Homo sapiens, UniProt P53350); assay: Luciferase assay for PLK1 in HeLa LgBit (Plk1-HiBit KI) cell line; type: cell-based; conditions: 300 nM compound, luminescence after 9 hours
T1 construct: endogenous in cells; host or cells: HeLa LgBit (Plk1-HiBit KI): HeLa stably expressing LgBit, with a CRISPR/Cas9 knock-in of HiBit at the endogenous PLK1 locus
T1 sequence (P53350 whole entry): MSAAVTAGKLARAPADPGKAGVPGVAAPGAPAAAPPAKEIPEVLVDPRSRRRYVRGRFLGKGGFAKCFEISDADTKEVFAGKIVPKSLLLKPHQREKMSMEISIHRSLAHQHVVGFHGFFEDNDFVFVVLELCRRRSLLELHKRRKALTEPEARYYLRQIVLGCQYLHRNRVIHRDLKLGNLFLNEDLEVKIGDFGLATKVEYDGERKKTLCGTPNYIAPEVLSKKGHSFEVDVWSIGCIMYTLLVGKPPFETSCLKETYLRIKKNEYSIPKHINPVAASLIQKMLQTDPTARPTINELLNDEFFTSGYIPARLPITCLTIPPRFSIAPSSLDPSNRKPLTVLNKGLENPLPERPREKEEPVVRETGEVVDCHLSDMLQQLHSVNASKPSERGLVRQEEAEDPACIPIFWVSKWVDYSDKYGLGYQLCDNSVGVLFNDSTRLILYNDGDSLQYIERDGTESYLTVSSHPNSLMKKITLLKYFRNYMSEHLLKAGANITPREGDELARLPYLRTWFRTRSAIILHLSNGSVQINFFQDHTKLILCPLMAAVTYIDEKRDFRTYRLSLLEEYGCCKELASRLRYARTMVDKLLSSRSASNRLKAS
Procedure, shortened: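 Luminescence, followed in real time after adding compound at 300 nM and Endurazine substrate, is reported relative to DMSO-treated wells. Cells are a HeLa LgBit line with a Plk1-HiBit knock-in, synchronized by 2 mM thymidine for 24 h, released, and cultured 18 h before treatment.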

NCI-H526 cell line = assay: Cell viability assay for H526 cell (EZ-Cytox); type: cell-based; conditions: Homo sapiens, NCI-H526, 120 h; H526 cells, 5 days, 3000 nM to 0.46 nM
Method: (1) Culture of NCI-H526 Cell Line
(2) Treatment of Compounds of the Present Invention and Method of Cell Viability Assay
After treating the compound to each well to make the total volume of 200 μL, it was cultured in a CO2 incubator (Thermo Fisher Science, Cat. No. 4111) for 5 days.
The absorbance of the completely cultured sample was measured by setting the wavelength of a plate reader (BMG Labtech, CLARIOstar Plus) to […], and was measured after shaking for 3 minutes in a plate reader before measurement.
In Table 3, Activity represents IC50 value of each Exemplary Compound treatment group to H526 cell line (A: <30 nM, B: <50 nM, C: <100 nM, D: <200 nM, E: <400 nM).

Activity: ratio of the luminescense value of each Exemplary Compound treatment group to DMSO treatment group (PLK1)	SMILES	IC50 (NCI-H526 cell line) [nM]
+++ (+++: <0.3)	COc1cc(C(=O)N[C@H]2CCCN(C(=O)CN3CCN(c4cccc5c4C(=O)N(C4CCC(=O)NC4=O)C5=O)CC3)C2)ccc1Nc1ncc2c(n1)N(C1CCCC1)CC(F)(F)C(=O)N2C (stereo partly drawn) [Compound 147, 4-((9-cyclopentyl-7,7-difluoro-5-methyl-6-oxo-6,7,8,9-tetrahydro-5H-pyrimido[4,5-b][1,4]diazepin-2-yl)amino)-N-((3S)-1-(2-(4-(2-(2,6-dioxopiperidin-3-yl)-1,3-dioxoisoindolin-4-yl)piperazin-1-yl)acetyl)piperidin-3-yl)-3-methoxybenzamide]	< 50
+++ (+++: <0.3)	COc1cc(C(=O)NC2CCN(CC3CN(c4cccc5c4C(=O)N(C4CCC(=O)NC4=O)C5=O)C3)CC2)ccc1Nc1ncc2c(n1)N(C1CCCC1)CC(F)(F)C(=O)N2C (stereo not shown) [Compound 135, 4-((9-cyclopentyl-7,7-difluoro-5-methyl-6-oxo-6,7,8,9-tetrahydro-5H-pyrimido[4,5-b][1,4]diazepin-2-yl)amino)-N-(1-((1-(2-(2,6-dioxopiperidin-3-yl)-1,3-dioxoisoindolin-4-yl)azetidin-3-yl)methyl)piperidin-4-yl)-3-methoxybenzamide]	< 50
+++ (+++: <0.3)	COc1cc(C(=O)NC2CCN(CC3CN(c4ccc5c(c4)C(=O)N(C4CCC(=O)NC4=O)C5=O)C3)CC2)ccc1Nc1ncc2c(n1)N(C1CCCC1)CC(F)(F)C(=O)N2C (stereo not shown) [Compound 134, 4-((9-cyclopentyl-7,7-difluoro-5-methyl-6-oxo-6,7,8,9-tetrahydro-5H-pyrimido[4,5-b][1,4]diazepin-2-yl)amino)-N-(1-((1-(2-(2,6-dioxopiperidin-3-yl)-1,3-dioxoisoindolin-5-yl)azetidin-3-yl)methyl)piperidin-4-yl)-3-methoxybenzamide]	< 30
++ (++<0.6)	COc1cc(C(=O)N2CCC(N3CCN(CCOCCCNc4cccc5c4C(=O)N(C4CCC(=O)NC4=O)C5=O)CC3)CC2)c(F)cc1Nc1ncc2c(n1)N(C1CCCC1)CC(F)(F)C(=O)N2C (stereo not shown) [Compound 190, 4-((3-(2-(4-(1-(4-((9-cyclopentyl-7,7-difluoro-5-methyl-6-oxo-6,7,8,9-tetrahydro-5H-pyrimido[4,5-b][1,4]diazepin-2-yl)amino)-2-fluoro-5-methoxybenzoyl)piperidin-4-yl)piperazin-1-yl)ethoxy)propyl)amino)-2-(2,6-dioxopiperidin-3-yl)isoindoline-1,3-dione]	< 30
+++ (+++: <0.3)	COc1cc(C(=O)NC2CCCN(C(=O)N3CCN(c4cccc5c4C(=O)N(C4CCC(=O)NC4=O)C5=O)CC3)C2)ccc1Nc1ncc2c(n1)N(C1CCCC1)CC(F)(F)C(=O)N2C (stereo not shown) [Compound 145, 4-((9-cyclopentyl-7,7-difluoro-5-methyl-6-oxo-6,7,8,9-tetrahydro-5H-pyrimido[4,5-b][1,4]diazepin-2-yl)amino)-N-(1-(4-(2-(2,6-dioxopiperidin-3-yl)-1,3-dioxoisoindolin-4-yl)piperazine-1-carbonyl)piperidin-3-yl)-3-methoxybenzamide]	< 50
+++ (+++: <0.3)	COc1cc(C(=O)N[C@@H]2CCCN(C(=O)CN3CCN(c4cccc5c4C(=O)N(C4CCC(=O)NC4=O)C5=O)CC3)C2)ccc1Nc1ncc2c(n1)N(C1CCCC1)CC(F)(F)C(=O)N2C (stereo partly drawn) [Compound 146, 4-((9-cyclopentyl-7,7-difluoro-5-methyl-6-oxo-6,7,8,9-tetrahydro-5H-pyrimido[4,5-b][1,4]diazepin-2-yl)amino)-N-((3R)-1-(2-(4-(2-(2,6-dioxopiperidin-3-yl)-1,3-dioxoisoindolin-4-yl)piperazin-1-yl)acetyl)piperidin-3-yl)-3-methoxybenzamide]	< 50

Continued, molecule first:

SMILES	Activity: ratio of the luminescense value of each Exemplary Compound treatment group to DMSO treatment group (PLK1)	IC50 (NCI-H526 cell line) [nM]
COc1cc(C(=O)NC2CCN(CCOc3cccc4c3C(=O)N(C3CCC(=O)NC3=O)C4=O)CC2)c(F)cc1Nc1ncc2c(n1)N(C1CCCC1)CC(F)(F)C(=O)N2C (stereo not shown) [Compound 2, 4-((9-cyclopentyl-7,7-difluoro-5-methyl-6-oxo-6,7,8,9-tetrahydro-5H-pyrimido[4,5-b][1,4]diazepin-2-yl)amino)-N-(1-(2-((2-(2,6-dioxopiperidin-3-yl)-1,3-dioxoisoindolin-4-yl)oxy)ethyl)piperidin-4-yl)-2-fluoro-5-methoxybenzamide]	++ (++<0.6)	< 200
COc1cc(C(=O)NC2CCN(C(=O)COc3cccc4c3C(=O)N(C3CCC(=O)NC3=O)C4=O)CC2)c(F)cc1Nc1ncc2c(n1)N(C1CCCC1)CC(F)(F)C(=O)N2C (stereo not shown) [Compound 37, 4-((9-cyclopentyl-7,7-difluoro-5-methyl-6-oxo-6,7,8,9-tetrahydro-5H-pyrimido[4,5-b][1,4]diazepin-2-yl)amino)-N-(1-(2-((2-(2,6-dioxopiperidin-3-yl)-1,3-dioxoisoindolin-4-yl)oxy)acetyl)piperidin-4-yl)-2-fluoro-5-methoxybenzamide]	++ (++<0.6)	< 400
COc1cc(C(=O)NC2CCN(CCOc3cccc4c3C(=O)N(C3CCC(=O)NC3=O)C4=O)CC2)c(Cl)cc1Nc1ncc2c(n1)N(C1CCCC1)CC(F)(F)C(=O)N2C (stereo not shown) [Compound 6, 2-chloro-4-((9-cyclopentyl-7,7-difluoro-5-methyl-6-oxo-6,7,8,9-tetrahydro-5H-pyrimido[4,5-b][1,4]diazepin-2-yl)amino)-N-(1-(2-((2-(2,6-dioxopiperidin-3-yl)-1,3-dioxoisoindolin-4-yl)oxy)ethyl)piperidin-4-yl)-5-methoxybenzamide]	+++ (+++: <0.3)	< 400
COc1cc(C(=O)N2CCC(CCN3CCN(c4cccc5c4C(=O)N(C4CCC(=O)NC4=O)C5=O)CC3)CC2)ccc1Nc1ncc2c(n1)N(C1CCCC1)CC(F)(F)C(=O)N2C (stereo not shown) [Compound 94, 4-(4-(2-(1-(4-((9-cyclopentyl-7,7-difluoro-5-methyl-6-oxo-6,7,8,9-tetrahydro-5H-pyrimido[4,5-b][1,4]diazepin-2-yl)amino)-3-methoxybenzoyl)piperidin-4-yl)ethyl)piperazin-1-yl)-2-(2,6-dioxopiperidin-3-yl)isoindoline-1,3-dione]	++ (++<0.6)	< 400
COc1cc(C(=O)N2CCC(CN3CCN(c4ccc5c(c4)C(=O)N(C4CCC(=O)NC4=O)C5=O)CC3)CC2)ccc1Nc1ncc2c(n1)N(C1CCCC1)CC(F)(F)C(=O)N2C (stereo not shown) [Compound 97, 5-(4-((1-(4-((9-cyclopentyl-7,7-difluoro-5-methyl-6-oxo-6,7,8,9-tetrahydro-5H-pyrimido[4,5-b][1,4]diazepin-2-yl)amino)-3-methoxybenzoyl)piperidin-4-yl)methyl)piperazin-1-yl)-2-(2,6-dioxopiperidin-3-yl)isoindoline-1,3-dione]	++ (++<0.6)	< 400
COc1cc(C(=O)NC2CCN(C(=O)CCCNc3cccc4c3C(=O)N(C3CCC(=O)NC3=O)C4=O)CC2)c(F)cc1Nc1ncc2c(n1)N(C(C)C)CC(F)(F)C(=O)N2C (stereo not shown) [Compound 33, 4-((7,7-difluoro-9-isopropyl-5-methyl-6-oxo-6,7,8,9-tetrahydro-5H-pyrimido[4,5-b][1,4]diazepin-2-yl)amino)-N-(1-(4-((2-(2,6-dioxopiperidin-3-yl)-1,3-dioxoisoindolin-4-yl)amino)butanoyl)piperidin-4-yl)-2-fluoro-5-methoxybenzamide]	++ (++<0.6)	< 200
COc1cc(C(=O)NN2CCN(C3CCN(c4cccc5c4C(=O)N(C4CCC(=O)NC4=O)C5=O)C3)CC2)ccc1Nc1ncc2c(n1)N(C(C)C)CC(F)(F)C(=O)N2C (stereo not shown) [Compound 52, 4-((7,7-difluoro-9-isopropyl-5-methyl-6-oxo-6,7,8,9-tetrahydro-5H-pyrimido[4,5-b][1,4]diazepin-2-yl)amino)-N-(4-(1-(2-(2,6-dioxopiperidin-3-yl)-1,3-dioxoisoindolin-4-yl)pyrrolidin-3-yl)piperazin-1-yl)-3-methoxybenzamide]	++ (++<0.6)	< 30
COc1cc(C(=O)N2CCN(CCN3CCN(c4cccc5c4C(=O)N(C4CCC(=O)NC4=O)C5=O)CC3)CC2)ccc1Nc1ncc2c(n1)N(C1CCCC1)CC(F)(F)C(=O)N2C (stereo not shown) [Compound 86, 4-(4-(2-(4-(4-((9-cyclopentyl-7,7-difluoro-5-methyl-6-oxo-6,7,8,9-tetrahydro-5H-pyrimido[4,5-b][1,4]diazepin-2-yl)amino)-3-methoxybenzoyl)piperazin-1-yl)ethyl)piperazin-1-yl)-2-(2,6-dioxopiperidin-3-yl)isoindoline-1,3-dione]	++ (++<0.6)	< 400
